# Literature values as cited in PMC10447463, “Data-mining unveils structure–property–activity correlation of viral infectivity enhancing self-assembling peptides” (Nature Communications, 2023).
# System: HIV-1 infection of TZM-bl cells
# Settings: literature report; cited from earlier work
# Excerpt: page 30: 8. Amyloid peptides from functional and pathogenic contexts Table S1 Selected amyloid peptides from protein data bases and literature reports. Note, that the peptide KLVFFAK, derived from amyloid ab was reported for retroviral transduction enhancement, however with very low efficiencies (> 4 fold compared to virus only). 33 ”+” indicates reported ThT fluorescence (ThT) or fibril formation, “0” indicates no data reported. All peptides were synthesized via Fmoc SPPS protocol and purchased . w ≥ . sequence ThT fibril pI charge hfauchere derived from original context ref. IKFLSVN + + 9.7 ...
substance,measurement,value
KLVFFAK [reference compound],retroviral transduction enhancement compared to virus only,> 4 fold
